Tests used:
saliva flow = assay: Case study: stimulated saliva output (Parafilm chewing, 2 min) after Toviaz and pilocarpine in a single individual; assay type: in vivo, human; settings: after the administration of 8 mg Toviaz
Experimental: In this study, the effect of fesoterodine (Toviaz®), pilocarpine, the combination of the two, and placebo was measured in separate, yet identical, studies in a single individual.
The following protocol was for a pilot human study to evaluate the extent of saliva flow rate following the administration of 8 mg Toviaz® capsule and 5 or 7.5 mg pilocarpine HCl tablet after about 2.5 hrs from fesoterodine administration. The subject was a healthy, person. The subject performed the following: • 1. Fast the night before. • 2. No coffee or soda 8 hrs prior to taking the first dose. • 3. Record time voiding and measure urine if possible. • 4. Record extent of dryness of the mouth (Very dry, dry, and not dry). • 5. Record any adverse event. • 6. Chew a 1″×1″ piece of Parafilm (American National Can (Neenah, Wis. 54956) Bar code No. 7-466676999) over 2 minutes. • 7. Collect wetted Parafilm and saliva into a tared container (pre-weighed container). • 8. Measure the amount of saliva collected. • 9. Plot Saliva collected per 2 min time intervals against time.
The subject fasted overnight, but had 240 mL of water 1 hr prior to dose. The water continued ad lib until 1 hr pre and 1 hr post dose, other than 120 mL with Toviaz® and 120 mL with 5 mg Salagen® tablet. For lunch, the subject consumed a light sandwich. No coffee, soda, or caffeinated or alcoholic beverages was consumed.

saliva output = settings: 5 mg of pilocarpine; cited from earlier work

CC[C@@H]1C(=O)OC[C@@H]1Cc1cncn1C [pilocarpine]
time of pilocarpine administration after Toviaz at which best results are obtained (saliva flow): 2.3 to 2.5 h
time of maximum saliva output after administration (saliva output): about 30 minutes

Source: patent publication US20120289566A1, “COMBINATIONS OF FESOTERODINE AND SALIVARY STIMULANTS FOR THE TREATMENT OF OVERACTIVE BLADDER” (THERAVIDA, INC., priority 2011, published 2012)
